Measurements reported in ChEMBL document CHEMBL1125786, “Synthesis and biological evaluation of hydroxamate-based iron chelators” (1991).

Assays:
Format in all cases: functional
[1] = tested on: Rattus norvegicus; test: Total iron output induced by the compound in non-iron-overloaded bile duct cannulated rat, after 24 hours of po administration.
[2] = tested on: Rattus norvegicus; test: Total iron output induced by the compound in bile (non-iron-overloaded bile duct cannulated rat), after 3 hours of sc administration.
[3] = tested on: Rattus norvegicus; test: Total iron output induced by the compound in non-iron-overloaded bile duct cannulated rat, after 24 hours of sc administration.
[4] = tested on: Rattus norvegicus; test: Total iron output induced by the compound in bile (non-iron-overloaded bile duct cannulated rat), after 9 hours of po administration.
[5] = tested on: Rattus norvegicus; test: Total iron output induced by the compound in bile (non-iron-overloaded bile duct cannulated rat), after 6 hours of sc administration.
[6] = tested on: Rattus norvegicus; test: Total iron output induced by the compound in bile (non-iron-overloaded bile duct cannulated rat), after 3 hours of po administration.
[7] = tested on: Rattus norvegicus; test: Total iron output induced by the compound in bile (non-iron-overloaded bile duct cannulated rat), after 12 hours of po administration.
[8] = tested on: Rattus norvegicus; test: Total iron output induced by the compound in bile (non-iron-overloaded bile duct cannulated rat), after 15 hours of sc administration.
[9] = tested on: Rattus norvegicus; test: Total iron output induced by the compound in bile (non-iron-overloaded bile duct cannulated rat), after 6 hours of po administration.
[10] = tested on: Rattus norvegicus; test: Total iron output induced by the compound in urine (non-iron-overloaded bile duct cannulated rat), after 24 hours of po administration.
[11] = tested on: Rattus norvegicus; test: Total iron output induced by the compound in bile (non-iron-overloaded bile duct cannulated rat), after 24 hours of sc administration.
[12] = tested on: Rattus norvegicus; test: Total iron output induced by the compound in urine (non-iron-overloaded bile duct cannulated rat), after 24 hours of sc administration.
[13] = tested on: Rattus norvegicus; test: Total iron output induced by the compound in bile (non-iron-overloaded bile duct cannulated rat), after 18 hours of sc administration.
[14] = tested on: Rattus norvegicus; test: Total iron output induced by the compound in bile (non-iron-overloaded bile duct cannulated rat), after 24 hours of po administration.
[15] = tested on: Rattus norvegicus; test: Total iron output induced by the compound in non-iron-overloaded bile duct cannulated rat(Treated-control), after 24 hours of sc administration.
[16] = tested on: Rattus norvegicus; test: Total iron output induced by the compound in bile (non-iron-overloaded bile duct cannulated rat), after 21 hours of sc administration.
[17] = tested on: Rattus norvegicus; test: Total iron output induced by the compound in bile (non-iron-overloaded bile duct cannulated rat), after 9 hours of sc administration.
[18] = tested on: Rattus norvegicus; test: Total iron output induced by the compound in bile (non-iron-overloaded bile duct cannulated rat), after 21 hours of po administration.
[19] = tested on: Rattus norvegicus; test: Total iron output induced by the compound in bile (non-iron-overloaded bile duct cannulated rat), after 18 hours of po administration.
[20] = tested on: Rattus norvegicus; test: Total iron output induced by the compound in non-iron-overloaded bile duct cannulated rat(Treated-control), after 24 hours of po administration.
[21] = tested on: Rattus norvegicus; test: Total iron output induced by the compound in bile (non-iron-overloaded bile duct cannulated rat), after 15 hours of po administration.
[22] = tested on: Rattus norvegicus; test: Total iron output induced by the compound in bile (non-iron-overloaded bile duct cannulated rat), after 12 hours of sc administration.

Row | Structure (SMILES) | Iron output [1] | Iron output [2] | Iron output [3] | Iron output [4] | Iron output [5] | Iron output [6] | Iron output [7] | Iron output [8] | Iron output [9] | Iron output [10] | Iron output [11] | Iron output [12] | Iron output [13] | Iron output [14] | Iron output [15] | Iron output [16] | Iron output [17] | Iron output [18] | Iron output [19] | Iron output [20] | also measured
1 | CC(=O)N(O)CCCCCNC(=O)CCC(=O)N(O)CCCCCNC(=O)CCC(=O)N(O)CCCCCN [DEFEROXAMINE] | 151.5 | 43.6 | 277.6 | 76.8 | 105.9 | 14.7 | 97.1 | 196.2 | 43.9 | 16.5 | 228.4 | 49.2 | 210.7 | 135 | 212.4 | 219.8 | 152.8 | 128.7 | 119.8 | 86.3 | Iron output [21]: 110.8; Iron output [22]: 173.9
2 | COCCOCCOCCN(O)C(=O)CCC(=O)NCCCCCN(O)C(=O)CCC(=O)NCCCCCN(O)C(C)=O | 108.7 | 117.3 | 667.9 | 56.8 | 262.5 | 20.2 | 67.5 | 519.6 | 42.8 | 15 | 599.5 | 68.4 | 561.2 | 93.7 | 602.7 | 585.9 | 374.6 | 89 | 83.8 | 43.5 | Iron output [21]: 76.5; Iron output [22]: 456.1
3 | COCCOCCOCCN(O)C(=O)CCC(=O)NCCCCCN(O)C(=O)CCC(=O)NCCCCCN(O)C(=O)COCCOCCOC | 99.8 | 106.9 | 585 | 42.5 | 244.4 | 16.3 | 59.7 | 509.1 | 31.7 | 13.3 | 539.7 | 45.3 | 526 | 86.6 | 519.8 | 534.2 | 362.6 | 81.3 | 74.6 | 34.6 | Iron output [21]: 67.9; Iron output [22]: 467
